Assay results: the NIST ThermoML archive (doi:10.1007/s10765-015-2006-0)

Experiments:
[1] = mn = molality of the nth substance listed, in mol/kg; conditions: 101 kPa, Liquid, Frequency=3 MHz, Sing-around technique in a fixed-path interferometer
[2] = 101 kPa, Liquid, Frequency=3 MHz, Sing-around technique in a fixed-path interferometer

O=C([O-])CC(O)(CC(=O)[O-])C(=O)[O-].[NH4+].[NH4+].[NH4+] [ammonium 2-hydroxypropane-1,2,3-tricarboxylate] + O
speed of sound [m/s], [1]
Conditions	288.15 K	298.15 K	308.15 K	318.15 K
m1 = 0.2	1503.6	1532.2	1553.8	1569
m1 = 0.4	1540.7	1567.5	1587.7	1602.1
m1 = 0.6	1578.5	1603.3	1622	1635.2
m1 = 0.8	1615.6	1638.6	1655.7	1667.6

CC(C)[C@H](N)C(=O)O [L-valine] + O
speed of sound [m/s], [1]
Conditions	m1 = 0.00555	m1 = 0.02398	m1 = 0.03504	m1 = 0.05824	m1 = 0.07873	m1 = 0.09938	m1 = 0.2068	m1 = 0.2992	m1 = 0.4017
288.15 K	1467.4	1467.3	1469.7	1469.6	1472.8	1474.8	1477	1488.4	1497.2
298.15 K	1497.5	1497.4	1499.6	1499.7	1502.4	1504.4	1506.2	1516.6	1524.8
308.15 K	1520.4	1520.4	1522	1522.6	1525	1526.9	1528.2	1537.8	1545.2
318.15 K	1537.1	1537.4	1538.7	1539	1541.2	1542.7	1544.4	1552.5	1560.4

C[C@H](N)C(=O)O [(S)-2-aminopropanoic acid] + O
speed of sound [m/s], [1]
Conditions	m1 = 0.00939	m1 = 0.04689	m1 = 0.09896	m1 = 0.2003	m1 = 0.2979	m1 = 0.3997	m1 = 0.4941	m1 = 0.6099	m1 = 0.6973	m1 = 0.7978
288.15 K	1467.6	1469.9	1472.8	1480.3	1487.3	1494.3	1500.3	1509.5	1513.3	1520
298.15 K	1497.9	1499.8	1502.8	1509.6	1515.9	1522.7	1528	1536.7	1540.4	1546.2
308.15 K	1520.8	1522.7	1525.5	1531.8	1537.9	1544	1549	1556.8	1560.7	1566
318.15 K	1537	1539.2	1542	1547.9	1553.2	1558.7	1564.1	1571.4	1574.7	1611.9

NCC(=O)O [2-aminoacetic acid] + O
speed of sound [m/s], [1]
Conditions	m1 = 0.01207	m1 = 0.0523	m1 = 0.1037	m1 = 0.2037	m1 = 0.3068	m1 = 0.4124	m1 = 0.5028	m1 = 0.6058	m1 = 0.6829	m1 = 0.82
288.15 K	1467.2	1470.1	1472.3	1477.8	1483.4	1488.7	1494.5	1499.2	1503.4	1510.2
298.15 K	1497.7	1500.1	1502.3	1507.2	1512.4	1517.8	1523	1527.3	1531.3	1537.7
308.15 K	1520	1522.9	1524.7	1529.7	1534.6	1539.7	1543.8	1548.7	1552.5	1558.6
318.15 K	1537.2	1538.9	1541.1	1545.8	1551.4	1555.4	1560.2	1564.1	1567.7	1573.5

O [water]
[2]
Conditions	speed of sound [m/s]
288.15 K	1463.1
298.15 K	1495.8
308.15 K	1519.1
